Assay results: paper PMC9154793, “Design, synthesis, and biological evaluation of triazole-pyrimidine-methylbenzonitrile derivatives as dual A2A/A2B adenosine receptor antagonists” (Journal of Enzyme Inhibition and Medicinal Chemistry, 2022)
Like-named read-outs stand apart in the source and are kept apart here. Blank lines part the entries; values can stand above or below the compound they belong to.

Legend:
[1] = target: T1, human A2A AR (Homo sapiens, UniProt P29274); assay: cAMP functional assay in CHO-K1/ADORA2A/Gα15 cells (NECA-stimulated, HTRF); format: cell-based; conditions: for fold less active than compound 7i (cAMP IC50, A2A receptor): ratio of cAMP IC50 values vs 7i;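 as to all read-outs here: inhibition of NECA-driven intracellular cAMP build-up in the A2A-expressing cells, quantified with cAMP-d2 plus Eu3+-labelled anti-cAMP detection reagent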
Method: (§16) In the cAMP assay, CHO-K1/ADORA2A/Gα15 cells expressing human A2A AR and CHO-K1/ADORA2b/Gα15 cells expressing human A2B AR were activated by 5′-(N-ethylcarboxamido)adenosine (NECA) and triggered the accumulation of intracellular cAMP concentration.
(§17) CHO-K1/ADORA2A/Gα15 cells expressing human A2A AR and CHO-K1/ADORA2b/Gα15 cells expressing human A2B AR were both constructed by Genscript Biotech Corporation. […] The test stock solutions were diluted with different gradients for use. The procedure was exemplified by the cAMP functional assay on the A2A receptor: 10,000 cells/well of CHO-K1/ADORA2A/Gα15 were seeded in a 384-well plate in 20 μl of assay buffer. […] Then, 10 μl of detection reagent (cAMP-d2 and anti-cAMP-Eu3+) was added into each well of the plate and incubated at room temperature for 1 h.

[2] = target: T2, human A2B AR (Homo sapiens, UniProt P29275); assay: cAMP functional assay in CHO-K1/ADORA2b/Gα15 cells (NECA-stimulated, HTRF); format: cell-based
T2 sequence (P29275 1-332): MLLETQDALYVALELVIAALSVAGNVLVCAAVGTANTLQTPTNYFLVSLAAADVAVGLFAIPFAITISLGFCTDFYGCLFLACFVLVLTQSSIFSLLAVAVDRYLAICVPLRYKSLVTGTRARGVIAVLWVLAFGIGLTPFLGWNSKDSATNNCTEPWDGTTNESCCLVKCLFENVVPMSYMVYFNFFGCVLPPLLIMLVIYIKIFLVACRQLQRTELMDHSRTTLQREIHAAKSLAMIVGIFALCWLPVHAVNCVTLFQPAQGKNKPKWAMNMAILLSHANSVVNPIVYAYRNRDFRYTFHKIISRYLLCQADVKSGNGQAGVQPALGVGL
Method: as §16, §17

[3] = target: T1, human A2A AR; assay: A2A AR radioligand binding assay ([3H]-ZM241385, HEK-293 cell membranes)
Method: We further tested the IC50 values of compounds 7f, 7i, 17, 22, and AB928 in inhibiting the cAMP production of CHO cells expressing hA2A AR or hA2B AR (Table 2). […] In addition, the competitive binding experiments of compounds 7f, 7i, and AB928 were performed using membrane preparation of HEK-293 cells expressing human A2A AR (Table 3).
The target compounds were tested to evaluate their affinity for the A2A AR on HEK-293 cell membranes expressing human A2A AR. [^3H]-ZM241385 was used as a radioligand. The assay buffer (50 mM Tris-HCl, pH 7.4; 10 mM MgCl2; 1 mM EDTA; 1 μg/ml adenosine deaminase), wash buffer (50 mM Tris-HCl, pH 7.4; 154 mM NaCl), and 0.5% PEI solution were prepared and stored at 4 °C for use. The affinities were tested following the procedure reported by Hu et al[4].

[4] = Metabolic stability in human liver microsomes; format: in vitro ADME; conditions: human, microsomes
Method: (§1) The metabolic stability is an important focus for further compound optimisation. Compounds 7f, 7i, and AB928 were chosen to evaluate the stability in rat liver microsomes and human liver microsomes. For the microsomal metabolic experiment, 7-ethoxycoumarin (7-EC) was used as a control. As shown in Table 4 (see Supporting information for raw data), the CLint(liver) of 7-EC in rats and humans was 10.0 and 9.0 ml/min/g liver, respectively, indicating the experimental test system was reliable.
(§2) Metabolic stabilities of compounds 7f, 7i, and AB928 in liver microsomes were studied with pooled human (male) liver microsomes solution (20 mg/ml) and male Sprague–Dawley rats pooled liver microsomes solution (20 mg/ml) purchased from Research Institute for Liver Diseases (Shanghai) Co. Ltd. Both liver microsomes solutions (140 μl) were diluted by 3948 μl of water and 280 μl of phosphate buffered saline. The assay procedure: 640 μl of diluted liver microsomes solution was added to a solution of compound working solution (16 μl, 25 μM in DMSO) and the mixed solution was incubated at 37 °C for 5 min. Then 160 μl of NADPH generating system was added and take out 100 μl from the mixed solution was added 200 μl of acetonitrile solution to stop the reaction at the set incubation time (0 min, 10 min, 20 min, 30 min, 40 min, 50 min, and 60 min). All stopped reaction solutions were vortex mixed (3 min) and centrifuged (10,000 rpm, 4 °C for 10 min). Then 50 μl of the supernatant was analysed by UPLC-MS/MS system (details of the analytical method see Supporting information). […]
(§3) 8. Metabolic stability in human and rat liver microsomes
(§4) Metabolic stabilities of compounds 7f, 7i and AB928 in liver microsomes were studied with pooled human (male) liver microsomes solution (20 mg/mL) and male Sprague - Dawley rats pooled liver microsomes solution (20 mg/mL) purchased from Research Institute for Liver Diseases (Shanghai) Co. Ltd. Both liver microsomes solutions (140 μL) were diluted by 3948 μL of water and 280 μL of phosphate buffered saline. The assay procedure: 640 μL of diluted liver microsomes solution was added to a solution of compound working solution (16 μL, 25 μM in DMSO) and the mixed solution was […]
(§5) (1 picture or pasted object on this page, not shown here) […]
(§6) incubated at 37 ℃ for 5 min. Then 160 μL of NADPH generating system was added and take out 100 μL from the mixed solution was added 200 μL of acetonitrile solution to stop the reaction at the set incubation time (0 min, 10 min, 20 min, 30 min, 40 min, 50 min, and 60 min). All stopped reaction solutions were vortex mixed (3 min) and centrifuged (10000 rpm, 4 ℃ for 10 min). Then 50 μL of the supernatant was analyzed […]
(§7) 8.2 Chromatography and mass spectrometry conditions
(§8) UPLC was performed using an […] UPLC system (Waters, Milford, MA, […]
(§9) USA). Separation was achieved on a Waters BEH C18 column(100 mm × 2.1 mm， 1.7 μm) at 40 ℃. The injection volume of the sample solution was 5 μL. The mobile phase consisted of water (0.1% formic acid and ammonium acetate) and acetonitrile solution (20:80, v/v) at a flow rate of 0.4 mL/min within a running time of 6 min. Mass spectrometric analysis was performed on a Waters Xevo TQ-S triple quadrupole instrument using electrospray ionization in positive mode. Quantification was performed using multiple reaction monitoring (MRM) mode to monitor precursor-product ion transitions (Table S1).
(§10) Table S1. Conditions of MRM Detection. […]
(§11) Table S2. Raw data of metabolic stability in human and rat liver microsomes. […]
(§12) (min) Hum Rat Hum Rat Hum Rat Hum Rat
(§13) 9. Analytical method of pharmacokinetics assay
(§14) Animal experiments were performed according to the institutional ethical guidelines on animal care and approved by the Institute Animal Care and Use Committee at Binzhou […]
(§15) Female Bal b/c mice (sourced from Jinan Pengyue Experimental Animal Breeding […]

[5] = Metabolic stability in rat liver microsomes; format: in vitro ADME, Sprague–Dawley rats
Method: as §1, §2, §3, §4, §5, §6, §7, §8, §9, §10, §11, §12, §13, §14, §15

[6] = CHO cells expressing hA2A AR, mean ± SEM, read-out: cAMP IC50 hA2A AR
[7] = CHO-K1, compound at 10 nM, relative to ZM241385 at 1 μM, mean ± SEM, read-out: hA2A AR (%) inhibition of cAMP, 10 nM
[8] = CHO-K1, compound at 100 nM, relative to ZM241385 at 1 μM, mean ± SEM, read-out: hA2A AR (%) inhibition of cAMP, 100 nM
[9] = CHO-K1, compound at 1000 nM, relative to ZM241385 at 1 μM, mean ± SEM, read-out: hA2A AR (%) inhibition of cAMP, 1000 nM
[10] = CHO cells expressing hA2B AR, mean ± SEM, read-out: cAMP IC50 hA2B AR
[11] = CHO-K1, compound at 100 nM, relative to ZM241385 at 1 μM, mean ± SEM, read-out: hA2B AR (%) inhibition of cAMP, 100 nM

T1 sequence (P29274 whole entry): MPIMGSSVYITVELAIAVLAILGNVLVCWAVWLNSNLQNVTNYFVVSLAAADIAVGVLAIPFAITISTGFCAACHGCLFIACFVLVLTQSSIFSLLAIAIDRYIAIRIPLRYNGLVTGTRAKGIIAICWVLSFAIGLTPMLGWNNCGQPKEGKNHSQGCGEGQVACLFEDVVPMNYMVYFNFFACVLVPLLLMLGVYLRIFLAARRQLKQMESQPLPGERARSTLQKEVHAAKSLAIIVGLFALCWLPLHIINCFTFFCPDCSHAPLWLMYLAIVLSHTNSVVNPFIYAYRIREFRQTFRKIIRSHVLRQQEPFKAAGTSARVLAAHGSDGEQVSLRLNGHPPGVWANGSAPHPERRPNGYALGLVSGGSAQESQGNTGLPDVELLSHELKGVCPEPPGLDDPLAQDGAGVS

- IC50 [1]: 2.75 ± 0.12 nM
- inhibition at 0.01 µM ([1]; CHO-K1, read-out: hA2A AR (%) inhibition of cAMP, 10 nM): 20 ± 6.46%
- inhibition at 0.1 µM ([1]; CHO-K1, read-out: hA2A AR (%) inhibition of cAMP, 100 nM): 96.8 ± 7.16%
- inhibition at 1 µM ([1]; CHO-K1, read-out: hA2A AR (%) inhibition of cAMP, 1000 nM): 101 ± 5.55%
- IC50 [2]: 25.5 ± 0.35 nM
- inhibition at 0.1 µM ([2]; CHO-K1, read-out: hA2B AR (%) inhibition of cAMP, 100 nM): 103 ± 1.04%
- IC50 [3]: 25.2 ± 0.74 nM
- CLint(liver) Hum [4]: 0.17 mL/min/g
- half-life at 0.49 µM ([4]; male): 433 min
- remaining at 10 min, 0.49 µM ([4]; male): 96.2%
- remaining at 20 min, 0.49 µM ([4]; male): 104%
- remaining at 0.5 h, 0.49 µM ([4]; male): 97%
- remaining at 40 min, 0.49 µM ([4]; male): 91.8%
- remaining at 50 min, 0.49 µM ([4]; male): 89%
- remaining at 1 h, 0.49 µM ([4]; male): 94.4%
- remaining at 10 min, 0.49 µM ([5]; male, Sprague-Dawley, pooled rat liver microsomes, rat liver microsomes, 10 min): 74.7%
- remaining at 20 min, 0.49 µM ([5]; male, Sprague-Dawley, pooled rat liver microsomes, rat liver microsomes, 20 min): 67.4%
- remaining at 0.5 h, 0.49 µM ([5]; male, Sprague-Dawley, pooled rat liver microsomes, rat liver microsomes, 30 min): 53.1%
- remaining at 40 min, 0.49 µM ([5]; male, Sprague-Dawley, pooled rat liver microsomes, rat liver microsomes, 40 min): 42.8%
- remaining at 50 min, 0.49 µM ([5]; male, Sprague-Dawley, pooled rat liver microsomes, rat liver microsomes, 50 min): 35.6%
- remaining at 1 h, 0.49 µM ([5]; male, Sprague-Dawley, pooled rat liver microsomes, rat liver microsomes, 60 min, read-out: Remaining (%, T = 60min) Rat): 28.1%
- half-life at 0.49 µM ([5]; male, Sprague-Dawley, rat, pooled rat liver microsomes, read-out: T1/2 Rat): 33.8 min
- CLint(liver) Rat ([5]; rat liver microsomes): 2.15 mL/min/g
Compound: Cc1c(C#N)cccc1-c1cc(-c2cn(Cc3cccc(C(C)(C)O)n3)nn2)nc(N)n1 [AB928, reference compound]

- IC50 [1, 6]: 321 ± 94 nM
- inhibition at 0.01 µM [1, 7]: 17.6 ± 2.78%
- inhibition at 0.1 µM [1, 8]: 92.28 ± 0.61%
- inhibition at 1 µM [1, 9]: 92.7 ± 2.87%
- fold less active than compound 7i (cAMP IC50, A2A receptor) [1]: 52 fold
- IC50 [2, 10]: 80 ± 13.4 nM
- inhibition at 0.1 µM [2, 11]: 64.4 ± 0.89%
- melting point: 188 to 189 °C
Compound: Cc1ccc(-c2cc(-c3cn(Cc4cccc(C(C)(C)O)n4)nn3)nc(N)n2)o1 [Compound 17, 2-(6-((4-(2-Amino-6-(5-methylfuran-2-yl)pyrimidin-4-yl)-1H-1,2,3-triazol-1-yl)methyl)pyridin-2-yl)propan-2-ol]

- IC50 [1, 6]: 67.2 ± 10.9 nM
- inhibition at 0.01 µM [1, 7]: 22.4 ± 11.9%
- inhibition at 0.1 µM [1, 8]: 94.7 ± 4.43%
- inhibition at 1 µM [1, 9]: 93.6 ± 2.76%
- fold less active than compound 7i (cAMP IC50, A2A receptor) [1]: 11 fold
- IC50 [2, 10]: 178 ± 9.89 nM
- inhibition at 0.1 µM [2, 11]: 19.9 ± 1.85%
- melting point: 76 to 77 °C
Compound: CC(C)(O)c1cccc(Cn2cc(-c3cc(-c4cccc(CF)c4)nc(N)n3)nn2)n1 [Compound 22, 2-(6-((4-(2-amino-6-(3-(fluoromethyl)phenyl)pyrimidin-4-yl)-1H-1,2,3-triazol-1-yl)methyl)pyridin-2-yl)propan-2-ol]
